Data reported in patent US8952024B2, “Herbicidal pyrimidone derivatives” (E I du Pont de Nemours and Company, priority 2009, dated 2015).

Experiments:
Test in all cases: Test B pre-/postemergence plant response
Type in all cases: in vivo
[1] = tested on: Surinam grass (Brachiaria decumbens); conditions: for Surinam Grass plant response rating (0 to 100 scale): 62 g ai/ha, 0 is no effect, 13 to 15 days
Method in brief: (§1)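 Each species received compound formulated in non-phytotoxic solvent with surfactant, either at planting into a loam and sand blend or as a foliar spray once plants reached 2 to 18 cm in peat-based medium. Plants stayed in the greenhouse 13 to 15 days before visual evaluation against controls, scored 0 (no effect) to 100 (complete control).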

[2] = tested on: blackgrass (Alopecurus myosuroides); conditions: for Blackgrass plant response rating (0 to 100 scale): 62 g ai/ha, 0 is no effect, 13 to 15 days
Method in brief: as §1

corn (Zea mays) = conditions: for Corn plant response rating (0 to 100 scale): 62 g ai/ha, 0 is no effect, 13 to 15 days
Method in brief: as §1

[3] = tested on: downy bromegrass (Bromus tectorum); conditions: for Bromegrass, Downy plant response rating (0 to 100 scale): 62 g ai/ha, 0 is no effect, 13 to 15 days
Method in brief: as §1

[4] = tested on: goosegrass (Eleusine indica); conditions: for Goosegrass plant response rating (0 to 100 scale): 62 g ai/ha, 0 is no effect, 13 to 15 days
Method in brief: as §1

[5] = tested on: green foxtail (Setaria viridis); conditions: for Foxtail, Green plant response rating (0 to 100 scale): 62 g ai/ha, 0 is no effect, 13 to 15 days
Method in brief: as §1

[6] = tested on: johnsongrass (Sorghum halepense); conditions: for Johnsongrass plant response rating (0 to 100 scale): 62 g ai/ha, 0 is no effect, 13 to 15 days
Method in brief: as §1

kochia (Kochia scoparia) = conditions: for Kochia plant response rating (0 to 100 scale): 62 g ai/ha, 0 is no effect, 13 to 15 days
Method in brief: as §1

[7] = tested on: lambsquarters (Chenopodium album); conditions: for Lambsquarters plant response rating (0 to 100 scale): 62 g ai/ha, 0 is no effect, 13 to 15 days
Method in brief: as §1

[8] = tested on: large crabgrass (Digitaria sanguinalis); conditions: for Crabgrass, Large plant response rating (0 to 100 scale): 62 g ai/ha, 0 is no effect, 13 to 15 days
Method in brief: as §1

[9] = tested on: morningglory (Ipomoea coccinea); conditions: for Morningglory plant response rating (0 to 100 scale): 62 g ai/ha, 0 is no effect, 13 to 15 days
Method in brief: as §1

[10] = tested on: pigweed (Amaranthus retroflexus); conditions: for Pigweed plant response rating (0 to 100 scale): 62 g ai/ha, 0 is no effect, 13 to 15 days
Method in brief: as §1

soybean (Glycine max) = conditions: for Soybean plant response rating (0 to 100 scale): 62 g ai/ha, 0 is no effect, 13 to 15 days
Method in brief: as §1

[11] = tested on: velvetleaf (Abutilon theophrasti); conditions: for Velvetleaf plant response rating (0 to 100 scale): 62 g ai/ha, 0 is no effect, 13 to 15 days
Method in brief: as §1

wild oat (Avena fatua) = conditions: for Oat, Wild plant response rating (0 to 100 scale): 62 g ai/ha, 0 is no effect, 13 to 15 days
Method in brief: as §1

[12] = tested on: woolly cupgrass (Eriochloa villosa); conditions: for Cupgrass, Woolly plant response rating (0 to 100 scale): 62 g ai/ha, 0 is no effect, 13 to 15 days
Method in brief: as §1

[13] = tested on: yellow nutsedge (Cyperus esculentus); conditions: for Nutsedge, Yellow plant response rating (0 to 100 scale): 62 g ai/ha, 0 is no effect, 13 to 15 days
Method in brief: as §1

[14] = 16 g ai/ha, Postemergence, 0 to 100 scale
[15] = postemergence, 100 is complete control
[16] = Postemergence, 31 g ai/ha, 0 to 100 scale (0 no effect, 100 complete control)
[17] = Postemergence, 125 g ai/ha, scale 0 to 100 (0 no effect, 100 complete control)
[18] = 31 g ai/ha, postemergence, scale 0 to 100, 0 is no effect, 100 is complete control
[19] = Postemergence, 250 g ai/ha, scale 0 to 100 (0 no effect, 100 complete control)
[20] = Postemergence, 125 g ai/ha, visual rating after 13 to 15 days, scale 0 (no effect) to 100 (complete control)

CCn1c(-c2cc(F)cc(F)c2)ncc(C(=O)C2=C(O)CCCC2=O)c1=O [Compound 122]
10: Plant response rating, Goosegrass [4, 14]
25: Plant response rating, Surinam Grass [1, 14] | Plant response rating, Corn (corn (Zea mays); [17])
45: Plant response rating, Johnsongrass [6, 16] | Plant response rating, Kochia (kochia (Kochia scoparia); [17]) | Plant response rating, Soybean (soybean (Glycine max); [16])
0: Plant response rating, Blackgrass [2, 14] | Plant response rating, Corn (corn (Zea mays); [14]) | Plant response rating, Corn (corn (Zea mays); [16]) | Plant response rating, Kochia (kochia (Kochia scoparia); [14]) | Kochia plant response rating (0 to 100 scale) (kochia (Kochia scoparia); [15]) | Plant response rating, Kochia (kochia (Kochia scoparia); [16])
70: Plant response rating, Goosegrass [4, 17] | Cupgrass, Woolly plant response rating (0 to 100 scale) [12, 15] | Nutsedge, Yellow plant response rating (0 to 100 scale) [13, 15]
35: Plant response rating, Oat, Wild (wild oat (Avena fatua); [17]) | Plant response rating, Nutsedge, Yellow [13, 14]
60: Plant response rating, Lambsquarters [7, 16] | Plant response rating, Morningglory [9, 16]
50: Plant response rating, Bromegrass, Downy [3, 17]
80: Plant response rating, Foxtail, Green [5, 16] | Plant response rating, Soybean (soybean (Glycine max); [17]) | Plant response rating, Velvetleaf [11, 16]
5: Blackgrass plant response rating (0 to 100 scale) [2, 15] | Plant response rating, Blackgrass [2, 16] | Plant response rating, Bromegrass, Downy [3, 14] | Bromegrass, Downy plant response rating (0 to 100 scale) [3, 15] | Plant response rating, Bromegrass, Downy [3, 16] | Plant response rating, Oat, Wild (wild oat (Avena fatua); [14]) | Plant response rating, Oat, Wild (wild oat (Avena fatua); [16])
30: Oat, Wild plant response rating (0 to 100 scale) (wild oat (Avena fatua); [15])
55: Plant response rating, Lambsquarters [7, 14] | Plant response rating, Morningglory [9, 14] | Plant response rating, Nutsedge, Yellow [13, 16]
75: Surinam Grass plant response rating (0 to 100 scale) [1, 15] | Plant response rating, Surinam Grass [1, 16] | Plant response rating, Johnsongrass [6, 17] | Crabgrass, Large plant response rating (0 to 100 scale) [8, 15] | Plant response rating, Crabgrass, Large [8, 16] | Morningglory plant response rating (0 to 100 scale) [9, 15] | Plant response rating, Pigweed [10, 14] | Soybean plant response rating (0 to 100 scale) (soybean (Glycine max); [15]) | Plant response rating, Velvetleaf [11, 14] | Plant response rating, Cupgrass, Woolly [12, 17] | Plant response rating, Nutsedge, Yellow [13, 17]
40: Plant response rating, Goosegrass [4, 16] | Plant response rating, Foxtail, Green [5, 14]
98: Plant response rating, Pigweed [10, 17] | Plant response rating, Velvetleaf [11, 17]
15: Plant response rating, Blackgrass [2, 17] | Corn plant response rating (0 to 100 scale) (corn (Zea mays); [15])
90: Plant response rating, Surinam Grass [1, 17] | Plant response rating, Lambsquarters [7, 17] | Pigweed plant response rating (0 to 100 scale) [10, 15] | Velvetleaf plant response rating (0 to 100 scale) [11, 15]
20: Plant response rating, Johnsongrass [6, 14] | Plant response rating, Soybean (soybean (Glycine max); [14])
85: Foxtail, Green plant response rating (0 to 100 scale) [5, 15] | Plant response rating, Foxtail, Green [5, 17] | Plant response rating, Crabgrass, Large [8, 17] | Plant response rating, Morningglory [9, 17] | Plant response rating, Pigweed [10, 16]
65: Goosegrass plant response rating (0 to 100 scale) [4, 15] | Johnsongrass plant response rating (0 to 100 scale) [6, 15] | Lambsquarters plant response rating (0 to 100 scale) [7, 15] | Plant response rating, Crabgrass, Large [8, 14] | Plant response rating, Cupgrass, Woolly [12, 14] | Plant response rating, Cupgrass, Woolly [12, 16]

O=C1CCCC(O)=C1C(=O)c1cnc(-c2ccccc2)n(C2CC2)c1=O [Compound 90]
80: Plant response rating, Crabgrass, Large [8, 19]
0: Plant response rating, Oat, Wild (wild oat (Avena fatua); [18])
60: Plant response rating, Goosegrass [4, 18] | Goosegrass plant response rating (0 to 100 scale) [4, 15] | Plant response rating, Nutsedge, Yellow [13, 18]
50: Plant response rating, Cupgrass, Woolly [12, 20]
30: Plant response rating, Blackgrass [2, 19]
85: Kochia plant response rating (0 to 100 scale) (kochia (Kochia scoparia); [15]) | Plant response rating, Lambsquarters [7, 18] | Plant response rating, Pigweed [10, 18] | Plant response rating, Velvetleaf [11, 18]
100: Plant response rating, Lambsquarters [7, 19] | Plant response rating, Morningglory [9, 19] | Plant response rating, Pigweed [10, 19] | Plant response rating, Soybean (soybean (Glycine max); [19]) | Plant response rating, Velvetleaf [11, 19]
98: Plant response rating, Kochia (kochia (Kochia scoparia); [19]) | Pigweed plant response rating (0 to 100 scale) [10, 15] | Plant response rating, Soybean (soybean (Glycine max); [18]) | Soybean plant response rating (0 to 100 scale) (soybean (Glycine max); [15]) | Velvetleaf plant response rating (0 to 100 scale) [11, 15]
20: Plant response rating, Oat, Wild (wild oat (Avena fatua); [19])
90: Plant response rating, Foxtail, Green [5, 19]
75: Plant response rating, Surinam Grass [1, 19] | Plant response rating, Corn (corn (Zea mays); [19]) | Plant response rating, Goosegrass [4, 19] | Crabgrass, Large plant response rating (0 to 100 scale) [8, 15] | Plant response rating, Crabgrass, Large [8, 20] | Plant response rating, Nutsedge, Yellow [13, 19]
55: Plant response rating, Cupgrass, Woolly [12, 19]
45: Plant response rating, Corn (corn (Zea mays); [20]) | Plant response rating, Cupgrass, Woolly [12, 18] | Cupgrass, Woolly plant response rating (0 to 100 scale) [12, 15]
10: Plant response rating, Bromegrass, Downy [3, 20] | Plant response rating, Bromegrass, Downy [3, 19] | Plant response rating, Johnsongrass [6, 18]
25: Corn plant response rating (0 to 100 scale) (corn (Zea mays); [15]) | Johnsongrass plant response rating (0 to 100 scale) [6, 15]
65: Plant response rating, Surinam Grass [1, 18] | Surinam Grass plant response rating (0 to 100 scale) [1, 15] | Plant response rating, Foxtail, Green [5, 18] | Foxtail, Green plant response rating (0 to 100 scale) [5, 15] | Plant response rating, Johnsongrass [6, 19] | Plant response rating, Kochia (kochia (Kochia scoparia); [18]) | Plant response rating, Crabgrass, Large [8, 18] | Plant response rating, Morningglory [9, 18] | Nutsedge, Yellow plant response rating (0 to 100 scale) [13, 15]
15: Plant response rating, Corn (corn (Zea mays); [18])
5: Plant response rating, Blackgrass [2, 18] | Blackgrass plant response rating (0 to 100 scale) [2, 15] | Plant response rating, Blackgrass [2, 20] | Plant response rating, Bromegrass, Downy [3, 18] | Bromegrass, Downy plant response rating (0 to 100 scale) [3, 15] | Oat, Wild plant response rating (0 to 100 scale) (wild oat (Avena fatua); [15])
95: Lambsquarters plant response rating (0 to 100 scale) [7, 15] | Morningglory plant response rating (0 to 100 scale) [9, 15]
